Source: ChEMBL document CHEMBL1201862, “PubChem BioAssay data set” (2004)
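Step 1: Grow cells in 96-well plates. Step 2: Expose to compound for 48 hours at 5 concentrations. Step 3: Interpolate endpoints linearly; if unreached, use highest concentration. Here, GI50 denotes the concentration required for 50% inhibition of growth.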 The source made the active and inactive calls. Rule as the data show it: active = GI50 up to about 1.1 µM and inactive = higher.

Key:
Experiment in all cases: NCI anticancer screen, dose series, 48 h
ACHN = tested on: ACHN
BT-549 = tested on: BT-549
HCT-116 = tested on: HCT-116
HCT-15 = tested on: HCT-15
HOP-62 = tested on: HOP-62
Hs-578T = tested on: Hs-578T
LOX IMVI = tested on: LOX IMVI
M14 = tested on: M14
NCI-H226 = tested on: NCI-H226
OVCAR-3 = tested on: OVCAR-3
OVCAR-4 = tested on: OVCAR-4
OVCAR-5 = tested on: OVCAR-5
SF-268 = tested on: SF-268
SK-MEL-28 = tested on: SK-MEL-28
SK-MEL-2 = tested on: SK-MEL-2
SK-MEL-5 = tested on: SK-MEL-5
SK-OV-3 = tested on: SK-OV-3
SN12C = tested on: SN12C
MDA-N = tested on: MDA-N
SNB-75 = tested on: SNB-75

Measured: GI50

CS(=O)(=O)Nc1ccc(Nc2ccnc3ccc4[nH]ccc4c23)cc1
inactive: ACHN 21.5 µM | BT-549 19.7 µM | HCT-116 5.5 µM | HOP-62 13.9 µM | Hs-578T 21.8 µM | LOX IMVI 9.12 µM | M14 16.1 µM | NCI-H226 8.49 µM | OVCAR-3 10.3 µM | OVCAR-4 7.83 µM | OVCAR-5 26.3 µM | SF-268 5.13 µM | SK-MEL-28 15.8 µM | SK-MEL-2 10.3 µM | SK-MEL-5 11.7 µM | SK-OV-3 19.5 µM | SN12C 7.96 µM
46 µM: HCT-15

CC(C)C(NC(=O)C(Cc1ccccc1)NC(=O)[C@H]1CCC[C@H]1NC(=O)C(Cc1ccc(OC(C)(C)C)cc1)NC(=O)OC(C)(C)C)C(N)=O (some centres undefined)
36.1 µM: HCT-15
inactive: ACHN 45.7 µM | HCT-116 17.3 µM | HOP-62 16.6 µM | Hs-578T > 10 µM | LOX IMVI 15.6 µM | M14 18 µM | MDA-N 18.3 µM | NCI-H226 22.4 µM | OVCAR-3 25.1 µM | OVCAR-4 19.4 µM | OVCAR-5 18.8 µM | SF-268 23.1 µM | SK-MEL-28 18.4 µM | SK-MEL-2 26 µM | SK-MEL-5 9.95 µM | SK-OV-3 17.9 µM | SN12C 18.2 µM | SNB-75 11.4 µM

O=C(C(=O)c1cc2ccccc2[nH]1)c1cc2ccccc2[nH]1
94.2 µM: HCT-15
inactive: ACHN > 347 µM | HCT-116 98.6 µM | HOP-62 > 183 µM | LOX IMVI > 347 µM | M14 213 µM | NCI-H226 > 347 µM | OVCAR-3 12.8 µM | OVCAR-4 58.3 µM | OVCAR-5 > 347 µM | SF-268 > 347 µM | SK-MEL-28 149 µM | SK-MEL-2 > 347 µM | SK-MEL-5 > 301 µM | SK-OV-3 > 347 µM | SN12C 237 µM | SNB-75 > 347 µM

CC1=NN(c2cccc(Cl)c2)C(=N/c2nc3ccccc3s2)/C1=C\c1ccc(Cl)cc1
inactive: ACHN 24.3 µM | HCT-116 16.9 µM | HOP-62 21.5 µM | Hs-578T 23 µM | LOX IMVI 18.2 µM | M14 23.8 µM | MDA-N 23.4 µM | NCI-H226 21.2 µM | OVCAR-3 21.7 µM | OVCAR-5 22.6 µM | SF-268 19.3 µM | SK-MEL-28 20.8 µM | SK-MEL-2 17.9 µM | SK-MEL-5 15.8 µM | SK-OV-3 36.4 µM | SNB-75 26.4 µM
14.2 µM: HCT-15

Cc1c2c(C#N)nccc2c(C)c2c1c1ccccc1n2Cc1ccccc1
inactive: ACHN > 100 µM | HCT-116 > 100 µM | HOP-62 > 100 µM | Hs-578T 88.5 µM | LOX IMVI > 100 µM | M14 > 100 µM | MDA-N > 100 µM | NCI-H226 > 100 µM | OVCAR-3 > 100 µM | OVCAR-4 > 100 µM | OVCAR-5 > 100 µM | SF-268 > 100 µM | SK-MEL-28 > 100 µM | SK-MEL-2 > 100 µM | SK-MEL-5 > 100 µM | SK-OV-3 > 100 µM | SN12C > 100 µM | SNB-75 57.8 µM
> 100 µM: HCT-15

COc1ccc(O)cc1C(O)c1ccccc1 (centres undefined)
> 100 µM: HCT-15
inactive: ACHN > 100 µM | HCT-116 > 100 µM | HOP-62 > 100 µM | LOX IMVI > 100 µM | M14 > 100 µM | NCI-H226 > 100 µM | OVCAR-3 > 100 µM | OVCAR-4 > 100 µM | OVCAR-5 > 100 µM | SF-268 > 100 µM | SK-MEL-28 > 100 µM | SK-MEL-2 > 100 µM | SK-MEL-5 > 100 µM | SK-OV-3 > 100 µM | SN12C > 100 µM | SNB-75 > 100 µM

NC(CCCNCc1ccccc1O)C(=O)O (centres undefined)
> 100 µM: HCT-15
inactive: ACHN > 100 µM | HCT-116 > 100 µM | HOP-62 > 100 µM | LOX IMVI > 100 µM | M14 > 100 µM | NCI-H226 > 100 µM | OVCAR-3 > 100 µM | OVCAR-4 > 100 µM | OVCAR-5 > 100 µM | SF-268 > 100 µM | SK-MEL-28 > 100 µM | SK-MEL-2 > 100 µM | SK-MEL-5 > 100 µM | SK-OV-3 > 100 µM | SN12C > 100 µM | SNB-75 > 100 µM

COc1ccc(C2=Nc3ccccc3N=C(SC)C2)cc1
33.7 µM: HCT-15
inactive: ACHN 69.8 µM | HCT-116 50.4 µM | HOP-62 > 100 µM | LOX IMVI 16.9 µM | M14 59.7 µM | NCI-H226 > 100 µM | OVCAR-3 54.1 µM | OVCAR-4 48.5 µM | OVCAR-5 44 µM | SF-268 > 100 µM | SK-MEL-28 > 100 µM | SK-MEL-2 21.8 µM | SK-MEL-5 39.8 µM | SK-OV-3 > 100 µM | SN12C 66.7 µM | SNB-75 74 µM

N#CC(/C(=N/NC(=N)N)C(=O)Nc1ccccc1[N+](=O)[O-])c1nc(-c2ccc([N+](=O)[O-])cc2)cs1 (centres undefined)
> 100 µM: HCT-15
inactive: ACHN > 100 µM | HCT-116 > 100 µM | HOP-62 > 100 µM | LOX IMVI > 100 µM | M14 > 100 µM | NCI-H226 > 100 µM | OVCAR-3 > 100 µM | OVCAR-4 > 100 µM | OVCAR-5 > 100 µM | SF-268 > 100 µM | SK-MEL-28 > 100 µM | SK-MEL-2 > 100 µM | SK-MEL-5 > 100 µM | SK-OV-3 > 100 µM | SN12C > 100 µM | SNB-75 > 100 µM

O=c1[nH]c(=O)n(C2OC(CO)C(O)C2O)cc1OCc1ccccc1 (centres undefined)
inactive: ACHN > 100 µM | HCT-116 > 63.4 µM | HOP-62 > 100 µM | LOX IMVI > 31.6 µM | M14 > 100 µM | NCI-H226 > 100 µM | OVCAR-3 > 100 µM | OVCAR-4 > 100 µM | OVCAR-5 > 100 µM | SF-268 > 100 µM | SK-MEL-28 > 100 µM | SK-MEL-2 > 100 µM | SK-MEL-5 > 100 µM | SK-OV-3 > 100 µM | SN12C > 100 µM | SNB-75 > 100 µM
> 59 µM: HCT-15

O=C1Nc2ccccc2N/C1=C\C(=O)c1ccccc1O
> 100 µM: HCT-15
inactive: ACHN > 100 µM | HCT-116 > 100 µM | HOP-62 > 100 µM | LOX IMVI > 100 µM | M14 > 100 µM | NCI-H226 > 100 µM | OVCAR-3 > 100 µM | OVCAR-4 > 100 µM | OVCAR-5 > 100 µM | SF-268 > 100 µM | SK-MEL-28 > 100 µM | SK-MEL-2 > 100 µM | SK-MEL-5 > 100 µM | SK-OV-3 > 100 µM | SN12C > 100 µM | SNB-75 > 100 µM

COc1cc2c(cc1OC)CC(=O)Nc1cc(OC)c(OC)cc1CC2
inactive: ACHN > 100 µM | HCT-116 49 µM | HOP-62 55.2 µM | LOX IMVI > 82.4 µM | M14 36.1 µM | NCI-H226 79.1 µM | OVCAR-3 43.9 µM | OVCAR-4 > 53.5 µM | OVCAR-5 > 83.8 µM | SF-268 80.9 µM | SK-MEL-28 > 78.3 µM | SK-MEL-2 79.8 µM | SK-MEL-5 18.5 µM | SK-OV-3 38.6 µM | SN12C 45.9 µM | SNB-75 > 59.2 µM
55 µM: HCT-15

CCC(=C(c1ccc(OCc2ccccc2)cc1)c1ccc(OCc2ccccc2)cc1)c1ccc(OC)cc1
> 100 µM: HCT-15
inactive: ACHN > 100 µM | HCT-116 > 100 µM | HOP-62 > 100 µM | LOX IMVI > 100 µM | M14 > 100 µM | NCI-H226 > 100 µM | OVCAR-3 > 100 µM | OVCAR-4 > 100 µM | OVCAR-5 > 100 µM | SF-268 > 100 µM | SK-MEL-28 > 100 µM | SK-MEL-2 > 100 µM | SK-MEL-5 > 100 µM | SK-OV-3 > 100 µM | SN12C > 100 µM | SNB-75 > 100 µM

Cc1c(Cl)cccc1NC(=O)C(=O)C1C(=O)CC(C)(C)CC1=O
inactive: ACHN > 100 µM | HCT-116 > 100 µM | HOP-62 > 100 µM | LOX IMVI > 100 µM | M14 > 100 µM | NCI-H226 > 100 µM | OVCAR-3 > 100 µM | OVCAR-4 > 100 µM | OVCAR-5 > 100 µM | SF-268 > 100 µM | SK-MEL-28 > 100 µM | SK-MEL-2 > 100 µM | SK-MEL-5 > 100 µM | SK-OV-3 > 100 µM | SN12C > 100 µM | SNB-75 > 100 µM
> 100 µM: HCT-15

COc1ccc(CN[C@H]2CCc3cc(OC)c(OC)c(OC)c3-c3ccc(SC)c(=O)cc32)c(OC)c1OC
active: ACHN 0.063 µM | HCT-116 0.0229 µM | HOP-62 0.0319 µM | LOX IMVI 0.0352 µM | M14 0.0308 µM | NCI-H226 0.0237 µM | OVCAR-3 0.0235 µM | OVCAR-4 0.0343 µM | OVCAR-5 0.0421 µM | SF-268 0.0366 µM | SK-MEL-28 0.0443 µM | SK-MEL-2 0.0282 µM | SK-MEL-5 0.0326 µM | SK-OV-3 0.0293 µM | SN12C 0.0381 µM | SNB-75 0.0184 µM
0.0266 µM: HCT-15

OC1NC2CC3NC(O)C(O)NC3CC2NC1O (centres undefined)
> 100 µM: HCT-15
inactive: ACHN > 100 µM | HCT-116 > 100 µM | HOP-62 > 100 µM | Hs-578T > 100 µM | LOX IMVI > 100 µM | M14 > 100 µM | MDA-N > 100 µM | NCI-H226 > 100 µM | OVCAR-3 > 100 µM | OVCAR-4 > 100 µM | OVCAR-5 > 100 µM | SF-268 > 100 µM | SK-MEL-28 > 100 µM | SK-MEL-2 > 100 µM | SK-MEL-5 > 100 µM | SK-OV-3 > 100 µM | SN12C > 100 µM | SNB-75 > 100 µM
